Assay results published in patent US4338122A, “Biocidal 2-aryl-1,3-cyclopentanedione compounds and alkali metal and ammonium salts thereof” (Union Carbide Corporation, priority 1980, dated 1982).
Converted amounts (≈) assume the structure as drawn.

Legend:
Format in all cases: in vivo
[1] = tested on: egg of the two-spotted mite (Tetranychus urticae (Koch)); test: Mite Ovicide Test (egg); set-up: key to Miticidal, Egg (control rating): A: Excellent Control; B: Partial Control; No Control; conditions: for Miticidal, Egg (control rating): Table I, unhatched/hatched eggs four days after spraying; for LC50: Tetranychus urticae, Table II, read-out: Miticidal LD50, Egg (ppm required for a 50 percent kill of eggs)
Procedure: (§1) Suspensions of the test compounds were prepared by dissolving one gram of compound in 50 milliliters of acetone in which had been dissolved 0.1 gram (10 percent of the weight of compound) of an alkylphenoxyethoxyethanol surfactant, as an emulsifying or dispersing agent. The resulting solution was mixed into 160 milliliters of water to give roughly 200 milliliters of a suspension containing the compound in finely divided form. The thus prepared stock suspension contained 0.5 percent by weight of compound. The test concentrations employed in the tests described herein below were obtained by diluting the stock suspension with water. The test procedures were as follows:
The test organism was the egg of the two-spotted mite (Tetranychus urticae (Koch)), as obtained from adults reared on Tendergreen bean plants under controlled conditions of 80°±5° F. and 50±5 percent relative humidity. Heavily infested leaves from a stock culture were placed on the primary leaves of two bean plants six to eight inches in height growing in a two-and-a-half inch clay pot. Females were allowed to oviposit for a period of 48 hours and then the leaves of the infested plants were dipped in a solution containing 800 parts of tetraethyl pyrophosphate per million parts of water in order to destroy the reproductory forms and thus prevent further egg laying. […] The plants were allowed to dry thoroughly. The test compounds were formulated by diluting the stock suspension with water to give a suspension containing varying amounts of test compound per million parts of final formulation. The potted plants (one pot per compound) were placed on a revolving turntable and sprayed with 100-110 milliliters of test compound formulation by use of a DeVilbis spray gun set at 40 spig. air pressure. This application which lasted 30 seconds, was sufficient to wet the plants to run-off. As a control, 100-110 milliliters of a water solution containing acetone and emulsifier in the same concentrations as the test compound formulation, but containing no test compound, were also sprayed on plants infested with eggs. The sprayed plants were held at 80°±5° F. and 50±5 percent relative humidity for four days, after which a microscopic examination was made of unhatched (dead) and hatched (living) eggs.
(§2) In these tests the pesticidal activity of the compounds against mites and mite eggs were rated as follows:
(§3) Tests were conducted in accordance with the procedures given at pages 32 to 37 supra. The results are expressed in the same manner as used in Table I, except with respect to miticidal activity. For mite adult and mite egg comparison purposes, results are given in parts per million (ppm) required for a 50 percent kill of mites or eggs, respectively.

[2] = tested on: two-spotted mite (Tetranychus urticae (Koch)), adults and nymphal stages; test: Mite Foliage Spray Test (adult miticidal); set-up: key to Miticidal, Adult (control rating): A: Excellent Control; B: Partial Control; No Control; conditions: for Miticidal, Adult (control rating): Table I, mortality count four days after spraying; for LC50: Tetranychus urticae, foliar, Table II, read-out: Miticidal LD50, Adult (ppm required for a 50 percent kill of mites)
Procedure: as §1
Adults and nymphal stages of the two-spotted mite (Tetranychus urticae (Koch)), reared on Tendergreen bean plants at 80°±5° F. and 50±5 percent relative humidity, were the test organisms. Infested leaves from a stock culture were placed on the primary leaves of two bean plants six to eight inches in height, growing in a two-and-a-half inch clay pot. 150-200 Mites, a sufficient number for testing, transferred from the excised leaves to the fresh plants in a period of twenty-four hours. Following the twenty-four hour transfer period, the excised leaves were removed from the infested plants. The test compounds were formulated by diluting the stock suspension with water to provide suspensions containing the desired amount of test compound per million parts of final formulation. The potted plants (one pot per compound) were placed on a revolving turntable and sprayed with 100-110 milliliters of test compound formulation by use of a DeVilbis spray gun set at 40 psi. air pressure. This application, which lasted 30 seconds, was sufficient to wet the plants to run-off. As a control, 100-110 milliliters of a water solution containing acetone and emulsifier in the same concentrations as the test compound formulation, but containing no test compound, were also sprayed on infested plants. The sprayed plants were held at 80°±5° F. and 50±5 percent relative humidity for four days, after which, a mortality count of motile forms was made on the leaves of the test plants. Any individual which was capable of locomotion upon prodding was considered living.
as §2, §3

[3] = tested on: Tomato; test: Post-emergent herbicidal test, tomato; set-up: key: 1: no perceptible injury; 2: intermediate degrees of injury based upon the number and extent to which leaves were injured; 3: intermediate degrees of injury based upon the number and extent to which leaves were injured; 4: intermediate degrees of injury based upon the number and extent to which leaves were injured; 5: the plant was dead; conditions: 2500 parts per million, after ten days
Procedure: as §1
(§4) Experiments were also conducted to determine the phytotoxicity of representative compositions with respect to healthy fresh plants. Solutions of the compounds were prepared as described above to provide a concentration of 2500 parts per million of the test compound. The test plants were sprayed in accordance with the procedure described above for the Mite Foliage Spray Test so as to deliver approximately 100 milliliters of test solutions to the leaves of each plant tested. The sprayed plants and controls were set aside for approximately one hour to allow the solutions to dry and were then placed in the greenhouse. After ten days the plants were visually inspected to determine the extent of foliage injury. A rating of 1 indicates no perceptible injury; 5 indicates the plant was dead and ratings of 2, 3 and 4 indicate intermediate degrees of injury based upon the number and extent to which leaves were injured.
as §3

[4] = tested on: Soybean; test: Post-emergent herbicidal test, soybean; set-up: key: 1: no perceptible injury; 2: intermediate degrees of injury based upon the number and extent to which leaves were injured; 3: intermediate degrees of injury based upon the number and extent to which leaves were injured; 4: intermediate degrees of injury based upon the number and extent to which leaves were injured; 5: the plant was dead; conditions: 2500 parts per million, after ten days
Procedure: as §1, §4, §3

SMILES	Miticidal, Egg (control rating) [1]	LC50 [1] [µg/mL]	Miticidal, Adult (control rating) [2]	LC50 [2] [µg/mL]	Post-Emergent Herbicidal, Tomato (injury rating) ([3]; Table I)	Post-Emergent Herbicidal, Tomato (injury rating) ([3]; Table II)	Post-Emergent Herbicidal, Soybean (injury rating) ([4]; Table I)	Post-Emergent Herbicidal, Soybean (injury rating) ([4]; Table II)
Cc1ccc(C2C(=O)C3CCCCC3C2=O)c(C)c1 (centres unmarked) [CH3 CH3 H (CH2)4, 2-(2',4'-dimethylphenyl)-4,5,6,7,8,9-hexahydro-1,3-indandione]	A	15 (≈ 58.5 µM)	A	7 (≈ 27.3 µM)	2	2	5	1
Cc1ccc(C2C(=O)CCC2=O)c(C)c1 [CH3 CH3 H H H, 2-(2',4'-dimethylphenyl)-1,3-cyclopentanedione]	A	110 (≈ 544 µM)	A	15 (≈ 74.2 µM)	1	1	1	1
Cc1ccc(C)c(C2C(=O)C3CCCCC3C2=O)c1 (centres unmarked) [CH3 H CH3 (CH2)4, 2-(2',5'-dimethylphenyl)-4,5,6,7,8,9-hexahydro-1,3-indandione]	A	30 (≈ 117 µM)	A	35 (≈ 137 µM)	1	1	1	1
Cc1ccc(C)c(C2C(=O)CC(C)C2=O)c1 (centres unmarked) [CH3 H CH3 CH3 H, 2-(2',5'-Dimethylphenyl)-4-methyl-1,3-cyclopentanedione]	B	–	A	–	2	–	2	–
Cc1ccc(C)c(C2C(=O)CCC2=O)c1 [CH3 H CH3 H H]	B	–	A	–	1	–	3	–
Cc1ccccc1C1C(=O)C2CCCCC2C1=O (centres unmarked) [CH3 H H (CH2)4, 2-(2'-Methylphenyl)-4,5,6,7,8,9-hexahydro-1,3 indandione]	A	22 (≈ 90.8 µM)	A	12 (≈ 49.5 µM)	1	1	1	1
Cc1ccccc1C1C(=O)CCC1=O [CH3 H H H H, 2-(2'-methylphenyl)-1,3-cyclopentanedione]	B	500 (≈ 2660 µM)	A	90 (≈ 478 µM)	2	2	1	1
O=C1CCC(=O)C1c1ccc(Cl)cc1Cl [Cl Cl H H H, 2-(2',4'-Dichlorophenyl)-1,3-cyclopentanedione]	B	–	A	–	1	–	1	–
O=C1CCC(=O)C1c1ccccc1Cl [Cl H H H H]	C	–	B	–	1	–	1	–
Cc1ccccc1C1C(=O)c2ccccc2C1=O [Reference I Page 3, Compound 1, reference compound]	–	500 (≈ 2120 µM)	–	200 (≈ 846 µM)	–	2	–	0
Cc1ccc(C)c(C2C(=O)c3ccccc3C2=O)c1 [Reference II Page 146, Compound 6, reference compound]	–	200 (≈ 799 µM)	–	500 (≈ 2000 µM)	–	1	–	0
Cc1ccc(C2C(=O)c3ccccc3C2=O)c(C)c1 [Reference II Page 146, Compound 9, reference compound]	–	110 (≈ 439 µM)	–	40 (≈ 160 µM)	–	1	–	0
